Measured values as given in article PMC6910946, “Multiple roles of Bet v 1 ligands in allergen stabilization and modulation of endosomal protease activity” (Allergy, 2019).
“Also recorded” adds a separate entry of the source. Where two headings read alike, the source gives them in different places.

Tests used:
Bet_v_1 = target: T1, Bet_v_1 (Betula pendula, UniProt P15494); test: Thermal stability and secondary structure of Bet v 1 by circular dichroism (CD); assay type: physicochemical, Betula verrucosa; details: for increased melting point (T m) of Bet v 1 bound to ligand: CD and FTIR spectroscopy; for ΔCD: change of Tm of Bet v 1 versus no ligand
T1 construct: made in house
T1 sequence (P15494 1-160): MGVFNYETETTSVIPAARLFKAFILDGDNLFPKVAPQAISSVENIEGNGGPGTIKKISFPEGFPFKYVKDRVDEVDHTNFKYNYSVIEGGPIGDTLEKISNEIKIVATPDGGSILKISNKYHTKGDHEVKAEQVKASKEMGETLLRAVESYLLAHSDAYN
Text: Surface acoustic wave (SAW) technology and NMR spectroscopy were used to observe the interaction of Bet_v_1 with the selected compounds, including determination of the dissociation constant (K d). The influence of ligand binding on the secondary structure elements and the thermal stability of Bet_v_1 was monitored using circular dichroism (CD, JASCO J‐815 spectropolarimeter, Jasco) and Fourier transform infrared (FTIR) spectroscopy (Tensor II FTIR system, Bruker Optics Inc). A detailed description of these methods is available (Appendix [Link], [Link]).
The influence of ligand binding on the secondary structure elements and the thermal stability of Bet v 1 was addressed by circular dichroism (CD) and Fourier transform infrared (FTIR) spectroscopy. CD spectroscopy was performed with a JASCO J-815 spectropolarimeter fitted with a PTC-423S Peltier-type single position cell holder (Jasco, Tokyo, Japan) over the wavelength range 190 to 260 nm. For measurement, Bet v 1 with and without ligand was diluted in a 10 mM potassium phosphate buffer to a concentration of 0.1 mg/ml. The thermal stability analysis was recorded at 222 nm. The protein was denatured with a temperature slope of 1°C/min from 20 to 95°C.

[1] = tested on: murine BMDCs / CD4+ T‐cell hybridoma cells specific for epitope Thr142‐Ala153; test: T-cell proliferation assay: Bet v 1 epitope presentation by BMDCs to CD4+ T-cell hybridomas (IL-2); assay type: cell-based, mouse; details: Bet v 1 10 µg/mL with 10-fold molar excess of ligand; 16, 24, 32, 48 h
Experimental: (§1) The ability of ligand‐loaded Bet_v_1 to induce IgE‐antigen cross‐linking and basophil degranulation was assessed by mediator‐release assays using rat basophil (RBL‐2H3) cells, transfected with the human high‐affinity IgE receptor (FcεRI), as previously described.2, 24 In vitro uptake of labeled Bet_v_1 was performed using CD11c^+ murine bone marrow–derived dendritic cells (BMDCs). The maturation of human monocyte‐derived dendritic cells (moDCs) was analyzed as previously described.2 T‐cell proliferation assays using CD4^+ T‐cell hybridomas were performed as previously described.17 A detailed description of the in vitro assays is available (Appendix [Link], [Link]).
In order to test the relevance of the identified Bet_v_1 ligands in processing and presentation by DCs in a time‐dependent manner, we incubated BMDCs with Bet_v_1 in complex with different ligands and detected the presentation of Bet_v_1 by using CD4^+ T‐cell hybridoma cells specific for the immune‐dominant T‐cell epitope (Thr142‐Ala153). T‐cell proliferation was monitored indirectly by IL‐2 secretion (Figure 5).
Bet v 1 was incubated over night with a 10-fold molar excess of either Q3OS, PPB1, PPE1, or DOC before incubation with murine BMDCs at a concentration of 10 μg/mL in BMDC medium (online supporting information). After 16, 24, 32, and 48h, DCs were washed and CD4^+ T-cell hybridomas specific for the immune-dominant epitope 142-153 of Bet v 1 were added to the culture at a ratio of 1:10 (DC:T-cell) for 24h^17. Supernatants were harvested and IL-2 levels were determined by ELISA (Invitrogen, Thermo Fisher Scientific, Waltham, MA, USA). As a reference, BMDCs were pulsed at each time point with different concentrations of peptide 142-153 and co-cultured with CD4^+ T-cell hybridomas. By interpolating in a standard curve, a µM peptide equivalent from the measured IL-2 was calculated from DCs pulsed with different peptide concentrations. The assays were carried out in triplicates.

[2] = tested on: rat basophil (RBL‐2H3) cells transfected with the human high‐affinity IgE receptor (FcεRI); test: Mediator release assay (IgE cross-linking, basophil degranulation); assay type: cell-based; details: sera of six birch pollen allergic subjects
Experimental: as §1
A mediator-release assay was performed to assess the capacity of ligand-loaded Bet v 1 to induce IgE-antigen-crosslinking and basophil degranulation. In this respect, rat basophil (RBL-2H3) cells, transfected with the human high-affinity IgE receptor (FcεRI) were passively sensitized with sera of six subjects allergic to birch pollen (1:10), and used as previously described.^4 For cell-stimulation, Bet v 1 was used at 10-fold dilutions from 1 µg/ml to 0.01 pg/ml. Toxicity of ligands on RBL-2H3 was determined by cell viability assay using MTT (3-(4,5-Dimethylthiazol-2-yl)-2,5-Diphenyltetrazolium Bromide) from Sigma-Aldrich, Inc. (St. Louis, MO, USA). Results were expressed as percentage of total enzyme release of cells lysed with Triton X-100, and the half maximal release (in ng) was determined. Statistics were calculated with a repeated ANOVA followed by a Dunnett post-hoc test of logarithmically transformed half maximal release values (not significant, ns P > 0.05, *P < 0.05, **P < 0.01, and ***P < 0.001).

[3] = melting point of Bet v 1 with or without ligand, 222 nm

Compound: C[C@H](CCC(=O)O)[C@H]1CC[C@H]2[C@@H]3CC[C@@H]4C[C@H](O)CC[C@]4(C)[C@H]3C[C@H](O)[C@]12C [DOC, sodium deoxycholate, reference compound]
- T m CD (Bet_v_1): 67.44 °C
- secondary structure content of Bet v 1 (Bet_v_1): did not significantly alter its secondary structure content
- increased melting point (T m) of Bet v 1 bound to ligand (Bet_v_1): approximately 4 °C
- MHCII presentation of Bet v 1 epitope (Thr142‐Ala153) on DCs, IL‐2 secretion [1]: affected only after 48 hours
- IgE cross‐linking by Bet v 1‐complexes (RBL assay) [2]: None of the above described readouts was influenced

Compound: CCC1C(=O)CC(O)C1/C=C/C(O)CCCCCCCC(=O)O (stereo not shown) [PPE1, E1 phytoprostanes]
- increased melting point (T m) of Bet v 1 bound to ligand (Bet_v_1): ~7 °C
- secondary structure content of Bet v 1 (Bet_v_1; CD and FTIR, Figure S4): did not significantly alter its secondary structure content
- ΔCD (Bet_v_1): +6.94 °C
- T m CD (Bet_v_1; [3]): 70.62 °C
- MHCII presentation of Bet v 1 epitope (Thr142‐Ala153) on DCs, IL‐2 secretion [1]: consistently affected the MHCII presentation; also recorded: unique reduction in the presentation of the T‐cell epitopes
- IgE cross‐linking by Bet v 1‐complexes (RBL assay) [2]: None of the above described readouts was influenced

Compound: O=c1c(O[C@@H]2O[C@H](CO)[C@@H](O)[C@H](O)[C@H]2O[C@@H]2O[C@H](CO)[C@@H](O)[C@H](O)[C@H]2O)c(-c2ccc(O)c(O)c2)oc2cc(O)cc(O)c12 [Q3OS, quercetin 3‐O‐sophoroside]
- secondary structure content of Bet v 1 (Bet_v_1; CD and FTIR, Figure S4): did not significantly alter its secondary structure content
- ΔCD (Bet_v_1): +0.36 °C
- T m CD (Bet_v_1; [3]): 64.04 °C
- MHCII presentation of Bet v 1 epitope (Thr142‐Ala153) on DCs, IL‐2 secretion [1]: did not affect the presentation
- IgE cross‐linking by Bet v 1‐complexes (RBL assay) [2]: None of the above described readouts was influenced
